EC50 data for six compounds are collected here from ChEMBL document CHEMBL3808353, “Targeting the Follicle Stimulating Hormone Receptor (FSHR) To Treat Fertility Disorders” (ACS Med Chem Lett, 2016).

One may read the EC50 as the concentration that produces a half-maximal response.

SMILES strings stand for the structures.

For test [1], the target named is T1, Follicle-stimulating hormone receptor (Homo sapiens, UniProt P23945).
T1 sequence (P23945 whole entry): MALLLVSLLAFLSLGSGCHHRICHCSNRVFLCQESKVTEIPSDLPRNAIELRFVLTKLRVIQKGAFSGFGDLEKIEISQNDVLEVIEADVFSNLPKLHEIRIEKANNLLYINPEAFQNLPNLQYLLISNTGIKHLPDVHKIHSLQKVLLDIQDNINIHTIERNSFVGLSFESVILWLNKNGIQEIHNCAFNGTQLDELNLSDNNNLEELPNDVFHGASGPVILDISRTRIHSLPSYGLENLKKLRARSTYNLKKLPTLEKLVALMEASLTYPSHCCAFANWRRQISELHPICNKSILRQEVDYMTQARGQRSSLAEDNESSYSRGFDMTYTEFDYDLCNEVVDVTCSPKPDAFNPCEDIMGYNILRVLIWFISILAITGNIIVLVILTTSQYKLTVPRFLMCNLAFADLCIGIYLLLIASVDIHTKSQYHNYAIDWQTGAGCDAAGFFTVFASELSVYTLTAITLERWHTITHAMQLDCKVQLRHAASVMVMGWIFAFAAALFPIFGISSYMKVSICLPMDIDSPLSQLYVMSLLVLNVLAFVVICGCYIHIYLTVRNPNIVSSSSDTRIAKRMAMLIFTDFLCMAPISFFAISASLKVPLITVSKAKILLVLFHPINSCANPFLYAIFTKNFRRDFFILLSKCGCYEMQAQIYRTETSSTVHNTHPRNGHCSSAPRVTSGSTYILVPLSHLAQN
The experiment in a line: Positive allosteric modulation of FSHR (unknown origin) expressed in CHO cells assessed as FSH-induced cAMP accumulation incubated for 1 hr by HTRF assay. In kind it is functional, cell-based. In general terms: cAMP levels reflect the balance of adenylyl cyclase and phosphodiesterase activity.

Test [2] addresses T1, Follicle-stimulating hormone receptor. The experiment in a line: Positive allosteric modulation of human FSHR expressed in rat granulosa cells assessed as FSH-induced estradiol production after 72 hrs by radioimmunossay. In kind it is cell-based.

Turning to `Cc1ccccc1N1CCN(c2ccc(C(=O)NCCCN3CCCC3=O)cc2NC(=O)c2coc(C3CC3)n2)CC1`, the figures for the EC50 in test [1] and in test [2] were below 100 nM and 100 nM, respectively.

With `Cc1ccccc1N1CCN(c2ccc(C(=O)NCCCc3nn[nH]n3)cc2NC(=O)c2coc(C3CC3)n2)CC1`, the concentration giving a half-maximal response (EC50) in test [1] was below 100 nM; in test [2], 100 nM.

In the case of `Cc1ccccc1N1CCN(c2ccc(C(=O)NCCCN3CCCC3=O)cc2NC(=O)c2ccco2)CC1`, the 50% effective concentration (EC50) in test [1] was below 100 nM; in test [2], above 1000 nM.

Turning to `C=CCNC(=O)NCCCNC(=O)c1ccc(N2CCN(c3ccccc3C)CC2)c(NC(=O)c2ccco2)c1`, the 50% effective concentration (EC50) in test [1] was below 100 nM.

`Cc1ccccc1N1CCN(c2ccc(C(=O)NCCCN3CCCC3=O)cc2NC(=O)c2ccc(F)cc2)CC1`: the EC50 in test [1] and in test [2] was 100 nM each time.

As to `Cc1ccccc1N1CCN(c2ccc(C(=O)N[C@H]3CCC[C@H](O)C3)cc2NC(=O)c2coc(C3CC3)n2)CC1`, the half-maximal effective concentration (EC50) in test [1] was below 100 nM.
